Results published in PubChem BioAssay AID256 (DTP/NCI, 2004).
Several values for one entry are separate records, joined by “and”; a condition that tells them apart may be missing. Equal values may be shown once. Inconclusive results and toxic doses are left out.

Tested on: CD2F1 mice, L1210 leukemia ip, survival T/C
Assay: NCI In Vivo Anticancer Drug Screen. Data for tumor model L1210 Leukemia (intraperitoneal) in CD2F1 (CDF1) mice
Details: higher = longer survival
Procedure, shortened: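 Activity against a transplanted murine tumor was judged by comparing the compound group with a vehicle group. The outcome in the treated animals was divided by that in the controls.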

[1] = endpoint: mean survival time, dose: 100.0 mg/kg/injection, schedule: Q04DX003 (ip), vehicle: saline with Tween-80
[2] = endpoint: mean survival time, dose: 100.0 mg/kg/injection, schedule: Q04DX002 (ip), vehicle: saline with Tween-80
[3] = endpoint: mean survival time, dose: 200.0 mg/kg/injection, schedule: Q04DX003 (ip), vehicle: saline with Tween-80
[4] = endpoint: mean survival time, dose: 400.0 mg/kg/injection, schedule: Q04DX003 (ip), vehicle: saline with Tween-80

## O=C(O)c1cc[c]([Hg][S]c2ncnc3nc[nH]c23)cc1
endpoint: mean survival time, dose: 5.0 mg/kg/injection, schedule: Q01DX001 (ip), vehicle: saline
  T/C: 98 % of control
endpoint: mean survival time, dose: 10.0 mg/kg/injection, schedule: Q01DX001 (ip), vehicle: saline
  T/C: 98 % of control
endpoint: mean survival time, dose: 20.0 mg/kg/injection, schedule: Q01DX001 (ip), vehicle: saline
  T/C: 101 % of control
endpoint: mean survival time, dose: 25.0 mg/kg/injection, schedule: Q04DX003 (ip), vehicle: saline with Tween-80
  T/C: 98 % of control
endpoint: mean survival time, dose: 33.0 mg/kg/injection, schedule: Q04DX003 (ip), vehicle: saline sonified
  T/C: 119 % of control
endpoint: mean survival time, dose: 37.5 mg/kg/injection, schedule: Q01DX009 (ip), vehicle: saline sonified
  T/C: 172 % of control
endpoint: mean survival time, dose: 40.0 mg/kg/injection, schedule: Q01DX001 (ip), vehicle: saline
  T/C: 98 % of control
endpoint: mean survival time, dose: 50.0 mg/kg/injection, schedule: Q04DX003 (ip), vehicle: saline sonified
  T/C: 119 % of control
endpoint: mean survival time, dose: 50.0 mg/kg/injection, schedule: Q04DX003 (ip), vehicle: saline with Tween-80
  T/C: 104 % of control
endpoint: mean survival time, dose: 80.0 mg/kg/injection, schedule: Q01DX001 (ip), vehicle: saline
  T/C: 104 % of control
endpoint: mean survival time, dose: 100.0 mg/kg/injection, schedule: Q01DX009 (ip), vehicle: saline sonified
  T/C: 120 % of control
[1]
  T/C: 121 % of control and 101 % of control

## CN(C)P1(=O)OCC(C(C)(C)C)CO1 (stereo unspecified)
endpoint: mean survival time, dose: 25.0 mg/kg/injection, schedule: Q04DX002 (ip), vehicle: saline with Tween-80
  T/C: 101 % of control and 91 % of control
endpoint: mean survival time, dose: 50.0 mg/kg/injection, schedule: Q04DX002 (ip), vehicle: saline with Tween-80
  T/C: 97 % of control and 94 % of control
[2]
  T/C: 86 % of control and 94 % of control and 100 % of control

## [CH-]=C([CH2-])C.[Ni][Br].c1ccc([PH+](c2ccccc2)c2ccccc2)cc1
endpoint: mean survival time, dose: 25.0 mg/kg/injection, schedule: Q01DX001 (ip), vehicle: saline with Tween-80
  T/C: 101 % of control
endpoint: mean survival time, dose: 50.0 mg/kg/injection, schedule: Q01DX001 (ip), vehicle: saline with Tween-80
  T/C: 101 % of control
endpoint: mean survival time, dose: 100.0 mg/kg/injection, schedule: Q01DX001 (ip), vehicle: saline with Tween-80
  T/C: 108 % of control

## Cc1ccc2nc(O)cc(=O)n2c1
endpoint: mean survival time, dose: 50.0 mg/kg/injection, schedule: Q01DX001 (ip), vehicle: saline
  T/C: 103 % of control
endpoint: mean survival time, dose: 100.0 mg/kg/injection, schedule: Q01DX001 (ip), vehicle: saline
  T/C: 103 % of control
endpoint: mean survival time, dose: 200.0 mg/kg/injection, schedule: Q01DX001 (ip), vehicle: saline
  T/C: 97 % of control
endpoint: mean survival time, dose: 400.0 mg/kg/injection, schedule: Q01DX001 (ip), vehicle: saline
  T/C: 94 % of control

## Nc1ccccc1SC1CC(=O)N(c2ccccc2Cl)C1=O (stereo unspecified)
[1]
  T/C: 93 % of control
[3]
  T/C: 89 % of control
[4]
  T/C: 89 % of control

## CCOC(=O)C(C(C)=O)C(C)=O
[1]
  T/C: 102 % of control
[3]
  T/C: 94 % of control
[4]
  T/C: 94 % of control

## COc1c(O)c2c(c3cc(C(=O)N4CCc5c4c(O)c(OC)c4[nH]c(C(=O)N6CC7CC78C6=CC(=O)c6[nH]cc(C)c68)cc54)[nH]c13)CCN2C(N)=O (stereo unspecified)
endpoint: mean survival time, dose: 1.0 micrograms/kg/injection, schedule: Q01DX009 (ip), vehicle: other
  T/C: 116 % of control
endpoint: mean survival time, dose: 4.4 micrograms/kg/injection, schedule: Q04DX003 (ip), vehicle: other
  T/C: 106 % of control
endpoint: mean survival time, dose: 6.6 micrograms/kg/injection, schedule: Q04DX003 (ip), vehicle: other
  T/C: 104 % of control
endpoint: mean survival time, dose: 10.0 micrograms/kg/injection, schedule: Q04DX003 (ip), vehicle: other
  T/C: 116 % of control
endpoint: mean survival time, dose: 22.5 micrograms/kg/injection, schedule: Q04DX003 (ip), vehicle: other
  T/C: 122 % of control
endpoint: mean survival time, dose: 30.0 micrograms/kg/injection, schedule: Q01DX009 (ip), vehicle: other
  T/C: 124 % of control
endpoint: mean survival time, dose: 100.0 micrograms/kg/injection, schedule: Q04DX003 (ip), vehicle: other
  T/C: 101 % of control

## OC(O)(C(F)(F)F)C(F)(F)F
endpoint: mean survival time, dose: 50.0 mg/kg/injection, schedule: Q01DX005 (ip), vehicle: saline
  T/C: 103 % of control
endpoint: mean survival time, dose: 100.0 mg/kg/injection, schedule: Q01DX005 (ip), vehicle: saline
  T/C: 91 % of control
endpoint: mean survival time, dose: 100.0 mg/kg/injection, schedule: Q04DX002 (ip), vehicle: saline
  T/C: 103 % of control
endpoint: mean survival time, dose: 200.0 mg/kg/injection, schedule: Q04DX002 (ip), vehicle: saline
  T/C: 109 % of control

## OC1C=CC(O)C1 (stereo unspecified)
endpoint: mean survival time, dose: 75.0 mg/kg/injection, schedule: Q01DX001 (ip), vehicle: saline
  T/C: 97 % of control
endpoint: mean survival time, dose: 150.0 mg/kg/injection, schedule: Q01DX001 (ip), vehicle: saline
  T/C: 101 % of control

## CCOC(=O)c1c[nH]c2cc(OCC3CC3)c(OCC3CC3)cc2c1=O
[1]
  T/C: 95 % of control
[3]
  T/C: 95 % of control
[4]
  T/C: 93 % of control

## C/C=C/c1cnc(N)nc1-c1ccccc1
[2]
  T/C: 101 % of control
endpoint: mean survival time, dose: 200.0 mg/kg/injection, schedule: Q04DX002 (ip), vehicle: saline with Tween-80
  T/C: 96 % of control
endpoint: mean survival time, dose: 400.0 mg/kg/injection, schedule: Q04DX002 (ip), vehicle: saline with Tween-80
  T/C: 96 % of control

## CC(=O)CC(=O)c1ccccc1.CC(=O)CC(=O)c1ccccc1.CC(=O)CC(=O)c1ccccc1.[Cr]
endpoint: median survival time, dose: 50.0 mg/kg/injection, schedule: Q04DX002 (ip), vehicle: saline with Tween-80
  T/C: 88 % of control
endpoint: median survival time, dose: 100.0 mg/kg/injection, schedule: Q04DX002 (ip), vehicle: saline with Tween-80
  T/C: 88 % of control
endpoint: median survival time, dose: 200.0 mg/kg/injection, schedule: Q04DX002 (ip), vehicle: saline with Tween-80
  T/C: 88 % of control
endpoint: median survival time, dose: 400.0 mg/kg/injection, schedule: Q04DX002 (ip), vehicle: saline with Tween-80
  T/C: 88 % of control
